Measurements: publication PMC4849654, “A High-Throughput Cell-Based Screen Identified a 2-[(E)-2-Phenylvinyl]-8-Quinolinol Core Structure That Activates p53” (PLoS ONE, 2016)

Tests used:
E6 = E6 (Human papillomavirus type 16, UniProt P03126); conditions: SPR
Experimental: p53 or E6 (R&D systems) were suspended in 10 mM sodium acetate pH 5.0 and amine linked to a Biacore CM5 chip (GE systems). Free reactive amines were then blocked with ethanolamine. Compound 4 was diluted in HBS P buffer (GE systems) at concentrations 1–30 μM and run over the chip. The association time was monitored for 300s and disassociation time for 1000 sec. After each run, the chip was regenerated using 10 mM glycine pH 3.0. The sensograms were fit to a one-ligand model to determine the Ka and Kd.

p53 = target: T1, p53 (Homo sapiens, UniProt P04637, R273C); assay: Nuclear/cytoplasmic fractionation and Western analysis of p53; format: cell-based; conditions: C33a cells, 6 hrs, Western
T1 construct: endogenous in cells; host or cells: C33a
Experimental: For nuclear/cytoplasmic fractionation, 1 × 10^7 C33a cells were treated with 30 μM compound for 6 hrs. The cells were washed with PBS and lysed in 1000 μL of cytoplasmic extraction buffer (10 mM KCl, 10 mM HEPES, pH 7.9, 0.1 mM EDTA, 1 mM dithiothreitol) and incubated on ice for 20 min. 50 μL of 10% NP-40 was added to each lysate, vortexed and then centrifuged at 12,000 × g for 10 min. The cytosolic fraction was collected and the pellet containing the nuclei suspended in 50 μL of nuclear extraction buffer (0.4 M NaCl, 20 mM HEPES, pH 7.9, 1 mM EDTA). The nuclear fraction was incubated for 30 min on ice. The samples were spun at 14,000 × g for 10 min and the supernatants were collected. To concentrate the cytoplasmic fraction, 500 μL methanol, and 200 μL chloroform were added and the samples were vortexed, centrifuged for 10 min at 14,000 × g, and the upper and lower layer were discarded. The solid interphase was collected and suspended in 50 μL of lysis buffer. Equal cell equivalents were loaded on a gel and electrophoresed. For whole cell lysates, C33a cells were lysed with a modified RIPA buffer and subjected to SDS-PAGE electrophoresis. The gels were transferred to nitrocellulose and blots probed with antibodies for p53 (Santa Cruz, antibody FL-303), lamin A/C, and calnexin (Santa Cruz Biotechnology).

PUMA = PUMA transcription by qRT-PCR; format: cell-based; conditions: 30 μM, 8h
From the text: RNA from C33a and HeLa was isolated by Trizol and reverse transcribed using the first strand synthesis kit from NEB. Primers for p53, GAPDH and PUMA were used for quantitative real-time PCR (qRT-PCR). Primer sequences include: PUMA (forward primer: CTCAACGCACAGTACGAG and reverse primer: […]), FAS (forward primer: TCTGCCATAAGCCCTGT and reverse primer: GTCTGTGTACTCCTTCCCT), p21 (forward primer: […] and reverse primer: […]), and BAX (forward primer: […] and reverse primer: […]). ΔΔCt values were determined for PUMA using GAPDH to normalize data. Bio-rad SYBR green was used for the amplification and detection of the PCR products on an iCycler (Bio-rad).

C33a cells [1] = assay: Cell viability (Cell Titer Glo), C33a; format: cell-based
Experimental: (§1) For the viability assays, 20,000 C33a, HeLa, or siHA cells were plated in white 96 well flat bottom plates. The cells were treated with compounds at concentrations from 0.5 to 30 μM for 48 hrs. After incubation, Cell Titer Glo (Promega) was added to the cells and luminescence read in a Tecan II plate reader. For annexin V and PI staining, 500,000 C33a cells were treated with inhibitor for 24 hrs. The cells were stained with Annexin V-FITC and PI according to eBioscience manufacturer’s instructions and analyzed by flow cytometry.

siHA cells = assay: Cell viability (Cell Titer Glo), siHA; format: cell-based; conditions: 48h
Experimental: as §1

MCF7 cells = assay: Cell viability, MCF7; format: cell-based; conditions: MCF7, wild type p53
HCT116 cells = assay: Cell viability, HCT116 (wtHCT116 and p53-null mutHCT116); format: cell-based
SQ20B cells = assay: Cell viability, SQ20B; format: cell-based; conditions: mutant p53
C33a cells [2] = assay: Cell viability after p53 siRNA knockdown; format: cell-based; conditions: p53 siRNA vs scrambled, 10 μM, 48 hrs
Experimental: C33a cells were transfected with 100 pmol siRNA for p53 (Dharmacon, L-003329-00-0005) or AllStar control (Qiagen) using lipofectamine2000 according to manufacturer’s instructions. The cells were incubated for 24 hrs and then split and incubated with 10 μM compounds. Cell viability was measured after 48 hours by Cell Titer Glo. Efficiency of knockdown was determined by quantitative RT-PCR using SYBR green.

C33a cells [3] = assay: Cell cycle distribution by PI staining; format: cell-based
[4] = system: proteasome trypsin-like activity; assay: Proteasome-Glo trypsin-like activity; format: cell-based; conditions: C33a cells, 2 hrs, 10 μM or 30 μM
p53-Luc = assay: In vitro E6 degradation assay (recombinant E6 with p53-Luc lysates); format: biochemical; conditions: 50 ng recombinant E6, 10 μM compound, C33a lysates, 6 hours
Experimental: For the in vitro assay, E6 was cloned into the pMAL vector in frame with the maltose binding protein. The E6 was expressed in bacteria and purified on amylose column. C33a cells were transfected with p53-Luc and incubated overnight. 50 ng recombinant E6 was incubated with 10 μM compound and C33a lysates for 6 hours at 30 degrees. We measured luciferase activity after 30 minutes. For the trypsin and chymotrypsin assay, C33a cells were incubated for 2 hours with the indicated compounds at 10 μM and assessed for chymotrypsin and trypsin activity using Proteasome-Glo assay (Promega). For the in vivo degradation assay, C33a cells expressing Ad-TE6 and Ad-p53 or expressing Ad-TE7 and Ad-Rb-Ren were treated for 8 hours with compounds. After incubation, cells were lysed and luciferase activity measured and p53 levels measured by Western blot.

Sequence of E6 (P03126 whole entry): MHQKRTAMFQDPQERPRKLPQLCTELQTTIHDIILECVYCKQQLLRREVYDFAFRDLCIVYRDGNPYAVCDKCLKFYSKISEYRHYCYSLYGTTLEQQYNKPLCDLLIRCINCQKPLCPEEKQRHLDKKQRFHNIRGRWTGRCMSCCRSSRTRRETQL

SMILES: COc1ccc(/C=C/c2ccc3cccc(O)c3n2)cc1OC [compound 4]
- fold lesser affinity for E6 than for p53 (E6; E6 versus p53): 16 fold
- Kd (E6; read-out: KD for E6, recombinant E6): 3200 ± 1000 nM
- nuclear accumulation of p53 in nuclear fraction compared to vehicle (p53): higher levels of nuclear accumulation of p53
- PUMA transcription upregulation (PUMA; C33a cells): 2.76±0.29 fold
- PUMA transcription upregulation (PUMA; HeLa cells): 2.04±0.85 fold
- IC50 (C33a cells [1]; C33a cells, 48 hrs, Cell Titer Glo): 2300 nM
- cell viability at 30 μM (C33a cells [1]; C33a, 30 μM, 48h): decreased viability
- cell viability (Fig 5D) (C33a cells [1]; C33a, mutant p53): decreased viability
- cell viability at 30 μM (siHA cells): decreased viability
- cell viability (Fig 5D) (MCF7 cells): decreased viability
- viability of mutHCT116 cells relative to wtHCT116 cells (HCT116 cells; 10 μM, percent viability mutHCT116 divided by wtHCT116): 2.5±0.5 fold
- cell viability (Fig 5D) (HCT116 cells; HCT116, wild type p53): decreased viability
- cell viability (Fig 5D) (SQ20B cells): decreased viability
- effect of p53 gene knockdown on C33a sensitivity to compound (C33a cells [2]): significantly reversed
- cell cycle distribution (C33a cells [3]): normal cell cycle distribution
- trypsin-like proteasome activity [4]: did not significantly reduce
- restoration of p53 levels in vitro (p53-Luc): restored p53 levels in vitro to similar levels as the proteasome inhibitor MG132
